Experiments:
[1] = system: HEK293 cells; assay: Flow cytometry analysis of cellular penetration of complexes (trypsin/heparin treatment); assay type: cell-based, human; details: 10 nM to 1 μM complexes
Description: The cells are incubated with maurocalcine and the derived peptides, biotinylated and complexed with […], at the final concentration of 100 nM in PBS, in the dark and at ambient temperature for 1 hour. After 2 washes in PBS (PBS, in mM: […], 6.84 Na2HPO4, 3.16 NaH2PO4, pH 7.2), and the cells were treated with trypsin (1 mg/ml, INVITROGEN), for 10 min at 37° C., in order to remove the extracellular complexes and the plasma-membrane-bound complexes. After the incubation with trypsin, the cell suspension was centrifuged at 500 g and the cells were resuspended in PBS containing 1 μg/ml of propidium iodide (SIGMA). […] The analysis was carried out on live cells, using a flow cytometer (FACScalibur, BECTON DICKINSON). The data were recorded and analyzed using appropriate software (CellQuest, BD BIOSCIENCES). The live cells were sorted according to their size and their granulosity (forward/side scattering), over a total of 10 000 events.
The analysis is carried out as described in Example 1. For the heparin treatment experiments, the complexes were prepared in a heparin solution (bovine intestine heparin, sodium salt, SIGMA) and the cells were washed twice with the heparin solution, before and after incubation with the complexes prepared in the same heparin solution.
The cellular penetration was analyzed by flow cytometry, on cells incubated with the MCab/Strept-Cy3 complexes, and then treated with trypsin, so as to remove the complexes bound to the plasma membrane by means of lipids, specific receptors or heparan sulfate glycosaminoglycan (HPSG). It has been shown that this method makes it possible to effectively study the entry of penetrating peptides into cells (Richard et al., J. Biol. Chem., 2003, 278, 585-590).

[2] = system: undifferentiated L6 cells; assay: Penetration kinetics in live undifferentiated L6 cells, confocal microscopy; assay type: cell-based, rat
Description: The L6 rat myogenic cell line (clone C5, EACC) is cultured in DMEM medium supplemented with 15% fetal bovine serum (LIFE TECHNOLOGIES) and 1% penicillin-streptomycin (Invitrogen).
The live cells were incubated with maurocalcine and the derived peptides, biotinylated and complexed with streptavidin-cyanin 3, at the final concentration of 100 nM in PBS, at ambient temperature in freshly changed culture medium, on the platform of an upright microscope (Nikon Eclipse 600 FN, equipped with a water-immersion objective (×40); aperture 0.8) and a confocal head (Nikon PCM 2000), or else with a Leica TCS-SP2 microscope, equipped with an objective (×100), according to the “XYZt” mode.
The penetration kinetics of the maurocalcine and of the derived peptides, biotinylated in complex with streptavidin-Cy3, was initiated by injecting 100 nM of the complex into the culture medium. The Cy3 fluorescence was excited by means of a 543 nm wavelength of an […] laser. The light emission was filtered (595±35 nm filter). The images were recorded and analyzed using the EZ2000 software (Nikon). The quantitative analysis of the relative fluorescence was carried out on the overall signal of all the cells, using appropriate software (Leica).

[3] = target: T1, RyR1 receptor (Oryctolagus cuniculus, UniProt P11716); assay: Tritiated ryanodine binding assay on heavy sarcoplasmic reticulum vesicles; details: 100 nM complex
T1 construct: from tissue; host or cells: heavy sarcoplasmic reticulum vesicles (skeletal muscle implied)
Description: (§1) The heavy sarcoplasmic reticulum vesicles are prepared according to the method of Kim et al. (J. Biol. Chem., 1983, 258, 9662-9668) modified as described in Marty et al. (J. Biol. Chem., 2000, 275, 8206-8212). The protein concentration is measured by the Biuret method.
The heavy sarcoplasmic reticulum vesicles (1 mg/ml) are incubated at 37° C. for 2 hours and 30 min, in reaction buffer comprising 5 nM [^3H]-ryanodine, 150 mM NaCl, 2 mM EGTA, 2 mM Ca^2+ (pCa=5) and 20 mM Hepes, pH 7.4. Maurocalcine, the maurocalcine-derived peptides and their biotinylated derivatives are added before the addition of the heavy sarcoplasmic reticulum vesicles. The [^3H]-ryanodine bound to the heavy sarcoplasmic vesicles is measured by filtration through Whatmann GF/B filters, followed by three washes with 5 ml of ice-cold washing buffer (150 mM NaCl, 20 mM Hepes, pH 7.4). The [^3H]-ryanodine retained on the filters is measured by liquid scintillation. The nonspecific binding is measured in the presence of […] ryanodine (20 μM). The results are given in the form of means±standard deviation. Each experiment is carried out in triplicate and repeated at least twice.

[4] = target: T1, RyR1 receptor; assay: Ca2+ release by heavy sarcoplasmic reticulum vesicles (antipyrylazo III); assay type: biochemical; details: 100 nM complex
Description: as §1
The Ca^2+ release by the heavy sarcoplasmic reticulum vesicles was measured using a Ca^2+-sensitive dye, antipyrylazo III. The absorbance was measured at 710 nm, using a diode-array spectrophotometer (MOS-200, Optical System, BIOLOGIC). The heavy sarcoplasmic reticulum vesicles (50 μg) were actively loaded with Ca^2+, at 37° C., in 2 ml of buffer containing 100 mM KCl, 7.5 mM sodium pyrophosphate, 20 mM MOPS, pH 7.0, to which 250 μM of antipyrylazo III, 1 mM ATP/MgCl2, 5 mM phosphocreatine and 12 μg/ml of creatine phosphokinase had been added (Palade, J. Biol. Chem., 1987, 262, 6142-6148).
The calcium loading begins with sequential additions of 50 μM and 20 μM CaCl2.
Under these loading conditions, no calcium-induced calcium release interferes with the observations. At the end of each experiment, the Ca^2+ remaining in the vesicles is measured by the addition of 4 μM of Ca^2+ ionophore, […] (Sigma), and the absorbance signal is calibrated by means of two consecutive additions of 20 μM CaCl2.

T1 sequence (P11716 whole entry): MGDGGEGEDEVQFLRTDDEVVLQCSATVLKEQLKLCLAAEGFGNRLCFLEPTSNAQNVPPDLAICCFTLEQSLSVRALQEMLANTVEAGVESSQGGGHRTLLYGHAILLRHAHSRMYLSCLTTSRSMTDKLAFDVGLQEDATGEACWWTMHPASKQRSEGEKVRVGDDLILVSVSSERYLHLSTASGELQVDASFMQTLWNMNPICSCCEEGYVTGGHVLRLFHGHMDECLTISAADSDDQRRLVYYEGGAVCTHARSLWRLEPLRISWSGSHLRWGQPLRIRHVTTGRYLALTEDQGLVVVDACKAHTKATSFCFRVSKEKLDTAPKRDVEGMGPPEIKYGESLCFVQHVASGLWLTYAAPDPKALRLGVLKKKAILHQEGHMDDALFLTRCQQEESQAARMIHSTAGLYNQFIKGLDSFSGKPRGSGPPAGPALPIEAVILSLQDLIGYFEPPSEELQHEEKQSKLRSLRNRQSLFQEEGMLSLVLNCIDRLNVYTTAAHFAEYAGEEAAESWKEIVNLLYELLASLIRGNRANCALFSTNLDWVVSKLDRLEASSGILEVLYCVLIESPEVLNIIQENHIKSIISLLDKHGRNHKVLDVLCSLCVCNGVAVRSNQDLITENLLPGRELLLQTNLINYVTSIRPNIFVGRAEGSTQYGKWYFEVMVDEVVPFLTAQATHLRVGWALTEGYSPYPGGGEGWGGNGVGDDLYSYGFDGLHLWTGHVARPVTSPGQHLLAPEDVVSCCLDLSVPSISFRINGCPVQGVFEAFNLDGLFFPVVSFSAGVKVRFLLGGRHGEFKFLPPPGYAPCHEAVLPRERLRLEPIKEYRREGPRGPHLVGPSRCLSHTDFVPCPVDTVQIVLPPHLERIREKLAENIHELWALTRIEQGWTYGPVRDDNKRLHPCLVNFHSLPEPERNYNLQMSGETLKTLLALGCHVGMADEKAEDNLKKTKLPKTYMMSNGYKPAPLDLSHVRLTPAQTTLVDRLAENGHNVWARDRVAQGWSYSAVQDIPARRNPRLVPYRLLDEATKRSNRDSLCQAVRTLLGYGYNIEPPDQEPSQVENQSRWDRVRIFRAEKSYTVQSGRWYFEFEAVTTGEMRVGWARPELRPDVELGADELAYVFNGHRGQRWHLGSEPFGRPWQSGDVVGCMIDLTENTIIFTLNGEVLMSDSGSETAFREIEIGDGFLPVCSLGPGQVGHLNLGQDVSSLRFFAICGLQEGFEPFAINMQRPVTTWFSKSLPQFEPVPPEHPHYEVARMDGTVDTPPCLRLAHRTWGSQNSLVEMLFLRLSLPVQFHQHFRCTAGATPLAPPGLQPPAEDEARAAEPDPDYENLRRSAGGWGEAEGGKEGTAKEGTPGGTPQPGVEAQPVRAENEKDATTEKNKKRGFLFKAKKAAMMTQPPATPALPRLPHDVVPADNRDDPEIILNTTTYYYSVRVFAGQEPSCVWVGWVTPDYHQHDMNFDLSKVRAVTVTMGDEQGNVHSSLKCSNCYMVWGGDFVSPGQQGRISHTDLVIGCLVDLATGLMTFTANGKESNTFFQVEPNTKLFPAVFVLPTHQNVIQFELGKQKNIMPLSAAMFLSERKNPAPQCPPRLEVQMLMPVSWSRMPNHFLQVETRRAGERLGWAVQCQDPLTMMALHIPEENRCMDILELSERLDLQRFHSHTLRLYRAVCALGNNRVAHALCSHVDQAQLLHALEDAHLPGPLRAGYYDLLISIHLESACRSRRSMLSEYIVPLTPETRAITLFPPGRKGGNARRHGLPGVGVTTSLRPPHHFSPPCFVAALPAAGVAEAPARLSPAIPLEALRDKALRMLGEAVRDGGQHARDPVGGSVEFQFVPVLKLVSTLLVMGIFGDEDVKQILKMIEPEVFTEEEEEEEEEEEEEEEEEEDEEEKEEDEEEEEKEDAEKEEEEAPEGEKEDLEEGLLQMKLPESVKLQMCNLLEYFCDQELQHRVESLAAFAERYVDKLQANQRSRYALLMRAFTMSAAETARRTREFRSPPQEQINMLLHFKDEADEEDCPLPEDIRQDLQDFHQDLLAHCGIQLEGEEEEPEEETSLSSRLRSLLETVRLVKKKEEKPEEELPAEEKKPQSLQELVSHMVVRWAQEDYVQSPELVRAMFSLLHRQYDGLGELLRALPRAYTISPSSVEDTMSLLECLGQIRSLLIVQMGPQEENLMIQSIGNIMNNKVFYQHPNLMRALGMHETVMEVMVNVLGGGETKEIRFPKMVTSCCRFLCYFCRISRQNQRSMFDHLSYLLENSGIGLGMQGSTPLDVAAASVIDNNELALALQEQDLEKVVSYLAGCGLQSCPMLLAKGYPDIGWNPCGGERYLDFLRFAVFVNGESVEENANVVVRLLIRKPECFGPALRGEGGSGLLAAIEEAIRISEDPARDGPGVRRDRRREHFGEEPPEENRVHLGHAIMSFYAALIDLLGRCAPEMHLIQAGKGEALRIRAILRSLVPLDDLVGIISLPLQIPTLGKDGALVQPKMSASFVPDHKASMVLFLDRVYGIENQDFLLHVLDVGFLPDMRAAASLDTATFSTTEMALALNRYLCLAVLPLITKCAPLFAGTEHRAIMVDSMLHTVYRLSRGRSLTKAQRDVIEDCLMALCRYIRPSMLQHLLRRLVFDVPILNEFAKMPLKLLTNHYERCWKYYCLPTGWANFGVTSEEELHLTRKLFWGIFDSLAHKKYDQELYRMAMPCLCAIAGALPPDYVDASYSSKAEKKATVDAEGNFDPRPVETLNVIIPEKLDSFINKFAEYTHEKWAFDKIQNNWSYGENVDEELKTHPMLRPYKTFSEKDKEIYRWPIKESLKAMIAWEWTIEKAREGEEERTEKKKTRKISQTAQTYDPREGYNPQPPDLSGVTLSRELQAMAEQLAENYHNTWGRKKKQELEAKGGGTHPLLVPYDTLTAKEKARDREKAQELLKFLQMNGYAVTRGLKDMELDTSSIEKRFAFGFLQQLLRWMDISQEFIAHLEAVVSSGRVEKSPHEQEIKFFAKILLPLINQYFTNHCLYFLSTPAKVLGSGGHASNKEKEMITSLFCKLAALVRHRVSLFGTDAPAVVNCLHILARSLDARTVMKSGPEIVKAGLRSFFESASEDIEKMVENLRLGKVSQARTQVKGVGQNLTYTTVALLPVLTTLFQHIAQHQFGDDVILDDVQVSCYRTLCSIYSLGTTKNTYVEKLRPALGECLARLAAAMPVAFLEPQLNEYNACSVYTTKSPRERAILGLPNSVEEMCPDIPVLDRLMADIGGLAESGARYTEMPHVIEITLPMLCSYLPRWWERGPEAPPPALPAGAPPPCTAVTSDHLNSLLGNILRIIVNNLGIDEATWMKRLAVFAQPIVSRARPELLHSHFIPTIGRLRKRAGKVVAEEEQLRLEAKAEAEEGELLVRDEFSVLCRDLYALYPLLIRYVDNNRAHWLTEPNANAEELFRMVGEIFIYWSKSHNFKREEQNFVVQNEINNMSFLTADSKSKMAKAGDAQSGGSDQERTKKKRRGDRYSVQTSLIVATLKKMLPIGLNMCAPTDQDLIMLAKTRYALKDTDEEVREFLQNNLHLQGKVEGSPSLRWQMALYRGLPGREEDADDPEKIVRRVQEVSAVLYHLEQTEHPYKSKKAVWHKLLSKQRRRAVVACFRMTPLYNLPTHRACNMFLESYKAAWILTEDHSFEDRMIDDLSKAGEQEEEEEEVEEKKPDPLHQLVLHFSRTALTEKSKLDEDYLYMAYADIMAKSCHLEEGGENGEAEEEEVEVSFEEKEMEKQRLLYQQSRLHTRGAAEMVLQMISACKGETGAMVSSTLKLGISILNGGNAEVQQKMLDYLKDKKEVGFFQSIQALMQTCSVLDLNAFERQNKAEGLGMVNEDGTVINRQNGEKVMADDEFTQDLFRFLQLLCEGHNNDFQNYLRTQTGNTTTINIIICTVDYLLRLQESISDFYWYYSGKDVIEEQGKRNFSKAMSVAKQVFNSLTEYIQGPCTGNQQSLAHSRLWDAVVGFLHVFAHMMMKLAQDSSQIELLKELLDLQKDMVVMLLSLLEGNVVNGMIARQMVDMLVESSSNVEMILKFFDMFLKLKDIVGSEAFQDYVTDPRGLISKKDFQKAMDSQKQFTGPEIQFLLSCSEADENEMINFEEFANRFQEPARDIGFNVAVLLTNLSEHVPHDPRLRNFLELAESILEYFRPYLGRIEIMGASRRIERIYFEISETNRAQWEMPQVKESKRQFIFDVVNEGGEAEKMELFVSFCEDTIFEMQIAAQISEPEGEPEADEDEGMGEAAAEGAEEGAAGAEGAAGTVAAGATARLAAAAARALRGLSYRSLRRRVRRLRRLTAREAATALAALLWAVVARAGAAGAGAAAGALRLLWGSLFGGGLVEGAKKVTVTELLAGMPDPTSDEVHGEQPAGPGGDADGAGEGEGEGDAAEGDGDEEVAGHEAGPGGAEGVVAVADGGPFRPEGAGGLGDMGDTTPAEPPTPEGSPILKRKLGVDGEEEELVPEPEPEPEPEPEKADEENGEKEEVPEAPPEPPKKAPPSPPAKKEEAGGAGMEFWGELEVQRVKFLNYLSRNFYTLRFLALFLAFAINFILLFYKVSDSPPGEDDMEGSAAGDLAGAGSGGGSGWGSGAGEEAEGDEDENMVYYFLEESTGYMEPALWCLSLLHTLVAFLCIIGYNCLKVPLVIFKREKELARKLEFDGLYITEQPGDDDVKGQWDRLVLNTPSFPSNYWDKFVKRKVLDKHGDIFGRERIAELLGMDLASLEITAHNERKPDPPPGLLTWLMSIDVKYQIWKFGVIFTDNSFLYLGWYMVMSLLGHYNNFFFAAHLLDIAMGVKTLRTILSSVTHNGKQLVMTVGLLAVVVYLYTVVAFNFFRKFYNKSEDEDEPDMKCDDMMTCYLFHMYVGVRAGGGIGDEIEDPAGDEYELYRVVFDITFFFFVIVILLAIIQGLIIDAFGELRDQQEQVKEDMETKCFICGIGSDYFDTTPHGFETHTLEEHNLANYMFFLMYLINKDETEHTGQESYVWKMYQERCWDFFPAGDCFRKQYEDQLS

MCab/Strept-Cy3: biotinylated maurocalcine, complexed with cyanin-3-labeled streptavidin
saturability of penetration [1]: cannot be saturated | time of fluorescence peak in the plasma membrane (ROI-1) ([2]; 100 nM): 10 min | time at which labeling appears after addition ([2]; 100 nM in extracellular medium): 3 min | stimulation of [3H]-ryanodine binding to heavy sarcoplasmic reticulum vesicles [3]: conserve the ability to stimulate [^3H]-ryanodine binding | efficiency of Ca2+ release in comparison with maurocalcine alone [4]: slightly reduced efficiency | induction of Ca2+ release from sarcoplasmic reticulum vesicles [4]: induce Ca^2+ release

— patent US8207293B2, “Peptides derived from maurocalcine used as vectors for intracellular addressing of molecules of interest” (Commissariat a l'Energie Atomique, priority 2004, dated 2012)
